From the supplement of paper PMC10307832

Legend:
Assay in all cases: relative viability (nuclei count vs DMSO), 5 days (fraction); higher = more cells survive
Neratinib + Trametinib = compound: CCOc1cc2ncc(C#N)c(Nc3ccc(OCc4ccccn4)c(Cl)c3)c2cc1NC(=O)/C=C/CN(C)C [Neratinib] + CC(=O)Nc1cccc(-n2c(=O)n(C3CC3)c(=O)c3c(Nc4ccc(I)cc4F)n(C)c(=O)c(C)c32)c1 [Trametinib] (partner 0.02 µM)
Outline: (§1)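 Medians of duplicate plates are given as relative viability. That measure is the nuclei count in treated wells divided by the count in vehicle wells. Counts were taken on 4× images of lung cancer cell lines in 1536-well plates, 5 days after pin-tool dosing the day after seeding with one drug alone or a fixed anchor-drug dose plus five library-drug doses (not always all listed) in √10 steps.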

Neratinib + OSI-027 = compound: CCOc1cc2ncc(C#N)c(Nc3ccc(OCc4ccccn4)c(Cl)c3)c2cc1NC(=O)/C=C/CN(C)C [Neratinib] + COc1cccc2cc(-c3nc([C@H]4CC[C@H](C(=O)O)CC4)n4ncnc(N)c34)[nH]c12 [OSI-027] (partner 0.5 µM)
Outline: as §1

Neratinib + Lapatinib = compound: CCOc1cc2ncc(C#N)c(Nc3ccc(OCc4ccccn4)c(Cl)c3)c2cc1NC(=O)/C=C/CN(C)C [Neratinib] + CS(=O)(=O)CCNCc1ccc(-c2ccc3ncnc(Nc4ccc(OCc5cccc(F)c5)c(Cl)c4)c3c2)o1 [Lapatinib] (partner 2 µM)
Outline: as §1

Neratinib + Linsitinib = compound: CCOc1cc2ncc(C#N)c(Nc3ccc(OCc4ccccn4)c(Cl)c3)c2cc1NC(=O)/C=C/CN(C)C [Neratinib] + C[C@]1(O)C[C@@H](c2nc(-c3ccc4ccc(-c5ccccc5)nc4c3)c3c(N)nccn32)C1 [Linsitinib] (partner 1 µM)
Outline: as §1

Row | Cell Line | relative viability (Neratinib + Trametinib; first compound 0.01 µM) | relative viability (Neratinib + Trametinib; first compound 0.1 µM) | relative viability (Neratinib + Trametinib; first compound 0.3162 µM) | relative viability (Neratinib + Trametinib; first compound 1 µM) | relative viability (Neratinib + OSI-027; first compound 0.01 µM) | relative viability (Neratinib + OSI-027; first compound 0.03162 µM) | relative viability (Neratinib + OSI-027; first compound 0.1 µM) | relative viability (Neratinib + OSI-027; first compound 0.3162 µM) | relative viability (Neratinib + OSI-027; first compound 1 µM) | relative viability (Neratinib + Lapatinib; first compound 0.01 µM) | relative viability (Neratinib + Lapatinib; first compound 0.03162 µM) | relative viability (Neratinib + Lapatinib; first compound 0.1 µM) | relative viability (Neratinib + Lapatinib; first compound 0.3162 µM) | relative viability (Neratinib + Lapatinib; first compound 1 µM) | relative viability (Neratinib + Linsitinib; first compound 0.01 µM) | relative viability (Neratinib + Linsitinib; first compound 0.03162 µM) | relative viability (Neratinib + Linsitinib; first compound 0.1 µM) | relative viability (Neratinib + Linsitinib; first compound 0.3162 µM) | relative viability (Neratinib + Linsitinib; first compound 1 µM) | relative viability (Neratinib + Trametinib; first compound 0.03162 µM)
1 | 201T | 0.755 | 0.688 | 0.707 | 0.707 | 0.725 | 0.889 | 0.683 | 0.646 | 0.611 | 1.07 | 0.943 | 0.981 | 1.08 | 1.05 | 1.01 | 1.01 | 0.92 | 0.931 | 0.852 | 
2 | A549 |  |  |  |  |  |  |  |  |  | 1.09 | 0.968 | 0.907 |  | 0.558 | 0.614 | 0.547 | 0.468 | 0.391 | 0.365 | 
3 | A-427 | 0.835 | 0.807 | 0.637 | 0.337 | 0.487 | 0.499 | 0.467 | 0.332 | 0.218 | 1.08 | 1.12 | 0.972 | 1 | 0.998 | 1.13 | 1.19 | 1.11 | 1.07 | 0.731 | 0.85
4 | ABC-1 |  |  |  |  | 0.436 | 0.441 | 0.47 | 0.42 | 0.214 | 1.44 | 1.15 | 1.21 | 1.05 | 0.629 | 0.781 |  | 0.611 | 0.433 | 0.292 | 
5 | BEN | 1.02 | 1 | 0.883 | 0.792 | 0.286 | 0.304 | 0.275 | 0.283 | 0.286 | 0.739 | 1.12 | 0.464 | 0.59 | 0.565 | 1.03 | 0.961 | 0.814 | 0.744 | 0.544 | 1.2
6 | CAL-12T | 0.322 | 0.236 | 0.254 | 0.223 | 0.614 | 0.719 | 0.345 | 0.237 | 0.197 | 0.725 | 0.702 | 0.529 | 0.635 | 0.295 | 0.771 | 1.09 | 0.703 | 0.455 | 0.343 | 0.322
7 | COR-L23 | 0.572 | 0.598 | 0.482 | 0.379 | 0.863 | 0.862 | 0.753 | 0.68 | 0.285 | 1.07 | 1.14 | 0.781 | 0.882 | 0.598 | 1.01 | 1.08 | 0.879 | 0.835 | 0.318 | 0.603
8 | COR-L 105 | 0.49 | 0.372 | 0.32 | 0.4 | 0.863 | 0.54 | 0.36 | 0.226 | 0.283 | 0.36 | 0.37 | 0.331 | 0.377 | 0.32 | 0.989 | 1.07 | 0.754 | 0.298 | 0.241 | 0.441
9 | Calu-6 |  |  |  |  |  |  |  |  |  |  | 1.27 | 0.967 | 0.95 | 0.64 | 1.03 | 1.08 | 1.02 | 0.899 | 0.824 | 
10 | ChaGo-K-1 | 0.886 | 0.754 | 0.882 | 0.845 | 0.62 | 0.545 | 0.574 | 0.459 | 0.613 |  |  |  |  |  |  |  |  |  |  | 0.941
11 | EBC-1 |  |  |  |  |  |  |  |  |  | 0.205 | 0.192 | 0.199 | 0.233 | 0.211 | 0.932 | 1.08 | 0.842 | 0.914 | 1.04 | 
12 | EKVX | 0.353 | 0.315 | 0.139 | 0.162 | 0.712 | 0.693 | 0.656 | 0.365 | 0.195 | 0.186 | 0.212 | 0.179 | 0.195 | 0.189 | 1.12 | 0.85 | 0.842 | 0.276 | 0.141 | 0.334
13 | EMC-BAC-2 | 0.949 | 0.855 | 0.793 | 0.671 | 0.36 | 0.456 | 0.344 | 0.361 | 0.291 | 1.03 | 0.965 | 0.826 | 0.856 | 0.864 | 0.834 | 0.775 | 0.683 | 0.578 | 0.435 | 0.885
14 | EPLC-272H | 0.278 | 0.253 | 0.248 | 0.22 |  | 0.294 |  | 0.24 | 0.194 | 0.889 | 0.849 | 0.829 | 0.899 | 0.536 | 1.19 | 1.08 | 0.999 | 0.711 | 0.872 | 0.321
15 | H3255 | 0.619 | 0.426 | 0.241 | 0.236 | 0.559 | 0.571 | 0.436 | 0.212 | 0.215 | 0.257 | 0.333 | 0.273 | 0.229 | 0.176 | 0.963 | 0.961 | 0.725 | 0.233 | 0.0969 | 0.602
16 | HARA | 0.545 | 0.516 |  | 0.303 | 0.533 | 0.527 |  | 0.225 | 0.129 | 0.994 | 0.73 | 0.339 | 0.569 | 0.712 | 0.94 | 0.91 | 0.356 | 0.338 | 0.182 | 0.786
17 | HCC-15 | 0.329 | 0.362 | 0.349 | 0.325 | 0.707 | 0.794 | 0.6 | 0.559 | 0.511 | 0.947 | 1.01 | 0.715 | 0.756 | 0.725 | 0.894 | 0.913 | 0.776 | 0.81 | 0.551 | 0.402
18 | HCC-44 | 1.14 | 1.11 | 1.08 | 1.09 | 0.723 | 0.655 | 0.648 | 0.505 | 0.548 | 1.04 | 1.15 | 0.792 | 0.963 | 1.07 | 0.724 | 0.697 | 0.641 |  | 0.691 | 1.08
